Assay results published in ChEMBL document CHEMBL1201862, “PubChem BioAssay data set” (2004).
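Tested at 5 concentrations; 48 h exposure; 96-well plates; endpoints linearly interpolated, else capped at highest concentration. Here, GI50 denotes the concentration required for 50% inhibition of growth.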 Calls of active or inactive are those of the source. Rule as the data show it: active = GI50 up to about 1.1 µM and inactive = higher.

How the values were obtained:
Assay in all cases: inhibition of tumour cell growth, NCI panel, 48 h
T47D = test system: T47D
CCRF-CEM = test system: CCRF-CEM
EKVX = test system: EKVX
K562 = test system: K562
HOP-92 = test system: HOP-92
CAKI-1 = test system: CAKI-1
LOX IMVI = test system: LOX IMVI
MOLT-4 = test system: MOLT-4
SK-MEL-2 = test system: SK-MEL-2
A498 = test system: A498
MDA-MB-435 = test system: MDA-MB-435
SF-295 = test system: SF-295
SF-539 = test system: SF-539
SR = test system: SR
NCI-H460 = test system: NCI-H460
MDA-N = test system: MDA-N
OVCAR-8 = test system: OVCAR-8
SF-268 = test system: SF-268
A549 = test system: A549
NCI-H23 = test system: NCI-H23
MDA-MB-231 = test system: MDA-MB-231
NCI/ADR-RES = test system: NCI/ADR-RES
OVCAR-3 = test system: OVCAR-3
TK-10 = test system: TK-10
HOP-62 = test system: HOP-62
NCI-H226 = test system: NCI-H226
ACHN = test system: ACHN
786-0 = test system: 786-0
MCF7 = test system: MCF7
HCT-116 = test system: HCT-116
OVCAR-4 = test system: OVCAR-4
SK-MEL-5 = test system: SK-MEL-5
UO-31 = test system: UO-31
M14 = test system: M14
BT-549 = test system: BT-549
UACC-62 = test system: UACC-62
UACC-257 = test system: UACC-257
DU-145 = test system: DU-145
COLO 205 = test system: COLO 205
OVCAR-5 = test system: OVCAR-5
SNB-19 = test system: SNB-19
Hs-578T = test system: Hs-578T
SW-620 = test system: SW-620
HL-60 = test system: HL-60
RXF 393 = test system: RXF 393
NCI-H522 = test system: NCI-H522
HT-29 = test system: HT-29
KM12 = test system: KM12
PC-3 = test system: PC-3
HCT-15 = test system: HCT-15
SNB-75 = test system: SNB-75
U-251 = test system: U-251
SK-OV-3 = test system: SK-OV-3
IGROV-1 = test system: IGROV-1
SN12C = test system: SN12C
SK-MEL-28 = test system: SK-MEL-28
Malme-3M = test system: Malme-3M
HCC 2998 = test system: HCC 2998
RPMI-8226 = test system: RPMI-8226

## CCc1ncnc2cc(OCC3CO3)c(OC)cc12 (stereo not given)
T47D
  GI50: 20.9 µM (inactive)
CCRF-CEM
  GI50: 0.436 µM (active)
EKVX
  GI50: 10.6 µM (inactive)
K562
  GI50: 1.1 µM (active)
HOP-92
  GI50: 4.26 µM (inactive)
CAKI-1
  GI50: 5.06 µM (inactive)
LOX IMVI
  GI50: 0.646 µM (active)
MOLT-4
  GI50: 0.153 µM (active)
SK-MEL-2
  GI50: 3.32 µM (inactive)
A498
  GI50: 21.3 µM (inactive)
MDA-MB-435
  GI50: 5.12 µM (inactive)
SF-295
  GI50: 3.15 µM (inactive)
SF-539
  GI50: 5.98 µM (inactive)
SR
  GI50: 0.209 µM (active)
NCI-H460
  GI50: 5.53 µM (inactive)
MDA-N
  GI50: 5.94 µM (inactive)
OVCAR-8
  GI50: 0.647 µM (active)
SF-268
  GI50: 2.64 µM (inactive)
A549
  GI50: 4.49 µM (inactive)
NCI-H23
  GI50: 2.61 µM (inactive)
MDA-MB-231
  GI50: 7.24 µM (inactive)
NCI/ADR-RES
  GI50: 7.23 µM (inactive)
OVCAR-3
  GI50: 11.1 µM (inactive)
TK-10
  GI50: 10.8 µM (inactive)
HOP-62
  GI50: 3.18 µM (inactive)
NCI-H226
  GI50: 6.49 µM (inactive)
ACHN
  GI50: 1.37 µM (inactive)
786-0
  GI50: 0.902 µM (active)
MCF7
  GI50: 0.557 µM (active)
HCT-116
  GI50: 0.577 µM (active)
OVCAR-4
  GI50: 6.38 µM (inactive)
SK-MEL-5
  GI50: 6.34 µM (inactive)
UO-31
  GI50: 2.03 µM (inactive)
M14
  GI50: 5.28 µM (inactive)
BT-549
  GI50: 3.95 µM (inactive)
UACC-62
  GI50: 2.86 µM (inactive)
UACC-257
  GI50: 13.6 µM (inactive)
DU-145
  GI50: 4.15 µM (inactive)
COLO 205
  GI50: 8.17 µM (inactive)
OVCAR-5
  GI50: 13 µM (inactive)
SNB-19
  GI50: 6.52 µM (inactive)
Hs-578T
  GI50: 5.77 µM (inactive)
SW-620
  GI50: 0.735 µM (active)
HL-60
  GI50: 0.889 µM (active)
RXF 393
  GI50: 2.28 µM (inactive)
NCI-H522
  GI50: 2.31 µM (inactive)
HT-29
  GI50: 4.83 µM (inactive)
KM12
  GI50: 5.58 µM (inactive)
PC-3
  GI50: 7.31 µM (inactive)
HCT-15
  GI50: 3.09 µM
SNB-75
  GI50: 17.3 µM (inactive)
U-251
  GI50: 4.31 µM (inactive)
SK-OV-3
  GI50: 22.9 µM (inactive)
IGROV-1
  GI50: 1.06 µM (active)
SN12C
  GI50: 1.3 µM (inactive)
SK-MEL-28
  GI50: 11.7 µM (inactive)
Malme-3M
  GI50: 12.3 µM (inactive)

## COC(=O)C(CCC1CC(OC)N(C(=O)OCc2ccccc2)C1)/N=C/c1ccccc1 (stereo not given)
T47D
  GI50: 40.5 µM (inactive)
CCRF-CEM
  GI50: 41.9 µM (inactive)
EKVX
  GI50: 55.2 µM (inactive)
K562
  GI50: 45.2 µM (inactive)
HOP-92
  GI50: 59.4 µM (inactive)
CAKI-1
  GI50: > 100 µM (inactive)
LOX IMVI
  GI50: > 100 µM (inactive)
MOLT-4
  GI50: 30.1 µM (inactive)
SK-MEL-2
  GI50: 26.1 µM (inactive)
A498
  GI50: > 100 µM (inactive)
MDA-MB-435
  GI50: 53.8 µM (inactive)
SF-295
  GI50: > 100 µM (inactive)
SF-539
  GI50: > 100 µM (inactive)
SR
  GI50: 30.5 µM (inactive)
NCI-H460
  GI50: 78.3 µM (inactive)
MDA-N
  GI50: 48 µM (inactive)
OVCAR-8
  GI50: 96.2 µM (inactive)
SF-268
  GI50: > 100 µM (inactive)
A549
  GI50: 83 µM (inactive)
NCI-H23
  GI50: 76 µM (inactive)
MDA-MB-231
  GI50: 47 µM (inactive)
NCI/ADR-RES
  GI50: > 100 µM (inactive)
OVCAR-3
  GI50: 36.1 µM (inactive)
TK-10
  GI50: 98.6 µM (inactive)
HOP-62
  GI50: > 100 µM (inactive)
NCI-H226
  GI50: > 100 µM (inactive)
ACHN
  GI50: > 100 µM (inactive)
786-0
  GI50: > 100 µM (inactive)
MCF7
  GI50: 60 µM (inactive)
HCT-116
  GI50: 55.3 µM (inactive)
OVCAR-4
  GI50: 62.1 µM (inactive)
HCC 2998
  GI50: 31.6 µM (inactive)
SK-MEL-5
  GI50: 29.2 µM (inactive)
UO-31
  GI50: 91.6 µM (inactive)
M14
  GI50: 54.7 µM (inactive)
BT-549
  GI50: > 100 µM (inactive)
UACC-62
  GI50: 84.1 µM (inactive)
UACC-257
  GI50: 31.2 µM (inactive)
RPMI-8226
  GI50: 27.6 µM (inactive)
DU-145
  GI50: > 100 µM (inactive)
COLO 205
  GI50: 29.3 µM (inactive)
OVCAR-5
  GI50: > 100 µM (inactive)
SNB-19
  GI50: > 100 µM (inactive)
Hs-578T
  GI50: > 100 µM (inactive)
SW-620
  GI50: > 100 µM (inactive)
HL-60
  GI50: 47.8 µM (inactive)
RXF 393
  GI50: > 100 µM (inactive)
NCI-H522
  GI50: 30.6 µM (inactive)
HT-29
  GI50: 60.5 µM (inactive)
KM12
  GI50: 94.8 µM (inactive)
PC-3
  GI50: 45.1 µM (inactive)
HCT-15
  GI50: > 100 µM
SNB-75
  GI50: > 100 µM (inactive)
U-251
  GI50: > 100 µM (inactive)
SK-OV-3
  GI50: > 100 µM (inactive)
IGROV-1
  GI50: 87.9 µM (inactive)
SN12C
  GI50: > 100 µM (inactive)
SK-MEL-28
  GI50: > 100 µM (inactive)
